From patent US11401243B2, “Quinoline derived small molecule inhibitors of nicotinamide N-methyltransferase (NNMT) and uses thereof” (priority 2017, dated 2022)
Several values for one entry are separate records, joined by “and”; a condition that tells them apart may be missing. Equal values may be shown once. Entries after “also recorded” stand apart in the source; their conditions may differ.

Experiments:
[1] = test system: differentiating 3T3-L1 cells; test: Adipocyte differentiation / lipogenesis quantitated with oil red O staining; type: cell-based; settings: for reduction of lipogenesis compared to control untreated adipocytes: oil red O
Experimental: On day 9 post-differentiation, cells were subjected to quantitative oil red O (Thermo Fisher Scientific; Waltham, Mass., USA) staining as adapted and modified from published protocols. Briefly, cells were washed twice with PBS, fixed with 10% formalin for 30 min at room temperature, and stained with oil red O working solution (˜0.2% oil red O in 99% isopropanol) for 30 min. Cells were then washed five times or with sterile water until unincorporated oil red O stain was completely removed. Images of oil red O staining in control and inhibitor-treated cells were digitally photographed using a light microscope (Olympus BX41; Tokyo, Japan). After image capture, 2-propanol (3.5 mL) was added to each dish for 10 min to dissolve the oil red O stain and absorbance was quantified in a plate reader set at 492 nm wavelength. To ensure the absorbance from oil red O staining was within the linear detection range of the plate reader, a calibration curve was established for oil red O staining in adipocytes using a previously described protocol.

[2] = Parallel artificial membrane permeability assay (PAMPA); type: in vitro ADME
Experimental: Samples were tested in triplicates in three separate experiments.

[3] = target: recombinant human PRMT3 enzyme (Homo sapiens, UniProt O60678); test: PRMT3 activity assay (radiometric); type: biochemical; settings: 10 nM to 200 μM (1,8-diMQ) or 600 μM (5-amino-1MQ)
Source text: Test compounds were screened in biochemical assays for activity against three structurally similar methyltransferases, including catechol-O-methyltransferase (COMT), DNA (cytosine-5)-methyltransferase 1 (DNMT1), and protein arginine methyltransferase 3 (PRMT3). Additional biochemical assays were used to test the ability of compounds to inhibit nicotinamide phosphoribosyl transferase (NAMPT) and NAD+-dependent protein deacetylase sirtuin 1 (SIRT1), two enzymes in the NAD+ biosynthesis/salvage pathway. All assays were performed by Reaction Biology Corporation (RBC; Malvern, Pa., USA) and complete assay details are noted below. For each test compound, IC50 values were calculated from dose-response curves established with 10 concentrations of a half-log dilution series. For each assay, established enzyme specific inhibitors were included as positive controls for enzyme function and assay reproducibility. IC50 values were determined by non-linear least-squares fitting of a 4-parameter dose-response curve to collected data points (Graphpad Prism 7.0; La Jolla, Calif., USA).
PRMT3 activity assay. […] The analogues, 1,8-diMQ and 5-amino-1MQ were tested at concentrations from 200 μM-10 nM and 600 μM-10 nM, respectively. Reactions were performed with 5 μM histone H3 (histone L-arginine) substrate, 1 μM radiolabeled S-adenosyl-L-[methyl-3H]methionine (SAM) co-substrate, and recombinant human PRMT3 enzyme. Activity was monitored via quantification of radiolabeled reaction product histone [methyl-3H]-L-arginine.

[4] = target: T1, recombinant human COMT enzyme (Homo sapiens, UniProt P21964); test: COMT activity assay (radiometric); type: biochemical; settings: maximal tested concentration 600 μM
T1 construct: Reaction Biology Corporation (ran the assay)
T1 sequence (P21964 1-271): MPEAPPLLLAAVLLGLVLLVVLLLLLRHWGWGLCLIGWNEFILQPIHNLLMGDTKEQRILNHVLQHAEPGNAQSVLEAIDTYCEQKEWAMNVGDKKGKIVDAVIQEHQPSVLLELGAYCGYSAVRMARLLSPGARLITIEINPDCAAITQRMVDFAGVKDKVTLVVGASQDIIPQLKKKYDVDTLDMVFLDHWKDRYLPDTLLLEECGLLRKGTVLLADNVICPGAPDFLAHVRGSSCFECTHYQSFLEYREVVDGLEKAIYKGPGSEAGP

[5] = target: recombinant human DNMT1 enzyme (Homo sapiens, UniProt P26358); test: DNMT1 activity assay (radiometric); type: biochemical
Caco-2 cells = test: Bi-directional permeability assay with Caco-2 cells; settings: Caco-2; listed as 5-amino-1MQ
[6] = as above; settings: human
human NNMT (mt-hNNMT) = target: T2, human NNMT (mt-hNNMT) (Homo sapiens, UniProt P40261, E101A/E103A/K100A); test: NNMT activity assay (HPLC-UV detection of MNA), NNMT IC50 curves; settings: NNMT IC50
T2 sequence (P40261 1-261 K100A/E101A/E103A limits assumed): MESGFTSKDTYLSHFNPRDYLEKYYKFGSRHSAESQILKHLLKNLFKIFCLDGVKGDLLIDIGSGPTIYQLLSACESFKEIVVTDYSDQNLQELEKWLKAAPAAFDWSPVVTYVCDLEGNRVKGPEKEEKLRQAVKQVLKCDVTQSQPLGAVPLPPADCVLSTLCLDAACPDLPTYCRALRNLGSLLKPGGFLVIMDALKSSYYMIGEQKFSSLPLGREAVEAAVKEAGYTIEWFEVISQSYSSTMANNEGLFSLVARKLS

[7] = test system: 3T3-L1 pre-adipocytes cells; test: MTT cell viability assay; type: cell-based
Experimental: Cells were treated for 24 h with 0.1-600 μM NNMT inhibitors in cell culture media. A 24 h time point was chosen based on a previous report of using this time period for transfecting or treating 3T3-L1 cells with NNMT anti-sense oligonucleotides or a small molecule NNMT product inhibitor (1-MNA), respectively, for phenotypic measures. MTT (3-(4,5-dimethylthiazol-2-yl)-2,5-diphenyltetrazolium bromide) (ATCC; Manassas, Va., USA) was added to each well and assayed according to the manufacturer's instructions. Absorbance corresponding to the amount of formazan dye produced by treated cells was normalized to that produced by control (untreated) cells to calculate % viable cells in the treated samples.

Chain of recombinant human DNMT1 enzyme (P26358 whole entry): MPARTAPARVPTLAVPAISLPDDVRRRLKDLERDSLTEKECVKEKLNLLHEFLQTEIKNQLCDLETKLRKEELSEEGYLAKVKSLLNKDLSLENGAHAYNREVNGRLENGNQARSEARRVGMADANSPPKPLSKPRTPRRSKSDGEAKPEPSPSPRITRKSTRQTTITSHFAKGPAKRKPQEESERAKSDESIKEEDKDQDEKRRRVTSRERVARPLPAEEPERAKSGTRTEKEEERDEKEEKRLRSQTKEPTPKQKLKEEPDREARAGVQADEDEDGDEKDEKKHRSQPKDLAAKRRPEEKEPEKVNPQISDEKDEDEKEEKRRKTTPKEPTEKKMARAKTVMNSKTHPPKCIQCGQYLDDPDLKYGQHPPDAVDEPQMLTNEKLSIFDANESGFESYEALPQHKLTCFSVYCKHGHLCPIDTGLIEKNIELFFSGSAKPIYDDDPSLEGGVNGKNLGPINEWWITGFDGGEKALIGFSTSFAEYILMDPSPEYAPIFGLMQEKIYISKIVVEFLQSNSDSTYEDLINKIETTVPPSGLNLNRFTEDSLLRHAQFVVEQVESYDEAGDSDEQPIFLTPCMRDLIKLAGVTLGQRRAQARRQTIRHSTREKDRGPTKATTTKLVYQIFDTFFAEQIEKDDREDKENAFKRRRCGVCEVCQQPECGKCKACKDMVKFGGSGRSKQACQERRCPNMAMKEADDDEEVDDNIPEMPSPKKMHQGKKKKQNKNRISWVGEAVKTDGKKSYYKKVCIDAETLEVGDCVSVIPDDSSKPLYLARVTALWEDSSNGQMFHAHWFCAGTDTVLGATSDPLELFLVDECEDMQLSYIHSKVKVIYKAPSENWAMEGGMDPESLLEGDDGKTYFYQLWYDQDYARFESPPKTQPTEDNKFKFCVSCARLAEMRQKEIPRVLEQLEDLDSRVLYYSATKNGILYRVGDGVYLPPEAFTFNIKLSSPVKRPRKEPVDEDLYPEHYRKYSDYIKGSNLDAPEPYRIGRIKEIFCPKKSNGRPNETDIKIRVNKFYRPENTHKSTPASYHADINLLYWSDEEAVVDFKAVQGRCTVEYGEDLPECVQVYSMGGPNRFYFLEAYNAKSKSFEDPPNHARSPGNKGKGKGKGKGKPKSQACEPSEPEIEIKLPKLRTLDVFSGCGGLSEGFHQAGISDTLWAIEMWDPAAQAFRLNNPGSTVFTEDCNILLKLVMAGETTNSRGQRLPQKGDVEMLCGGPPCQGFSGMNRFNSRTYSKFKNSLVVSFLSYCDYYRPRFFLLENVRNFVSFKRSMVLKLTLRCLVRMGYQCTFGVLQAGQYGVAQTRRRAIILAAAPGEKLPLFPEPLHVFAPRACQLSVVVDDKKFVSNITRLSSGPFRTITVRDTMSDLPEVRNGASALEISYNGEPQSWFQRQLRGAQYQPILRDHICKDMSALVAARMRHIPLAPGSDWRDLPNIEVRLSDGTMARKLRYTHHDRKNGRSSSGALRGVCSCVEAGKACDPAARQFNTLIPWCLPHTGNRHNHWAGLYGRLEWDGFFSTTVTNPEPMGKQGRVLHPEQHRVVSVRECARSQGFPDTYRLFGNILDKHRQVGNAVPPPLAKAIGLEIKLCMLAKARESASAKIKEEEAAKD
Chain of recombinant human PRMT3 enzyme (O60678 whole entry): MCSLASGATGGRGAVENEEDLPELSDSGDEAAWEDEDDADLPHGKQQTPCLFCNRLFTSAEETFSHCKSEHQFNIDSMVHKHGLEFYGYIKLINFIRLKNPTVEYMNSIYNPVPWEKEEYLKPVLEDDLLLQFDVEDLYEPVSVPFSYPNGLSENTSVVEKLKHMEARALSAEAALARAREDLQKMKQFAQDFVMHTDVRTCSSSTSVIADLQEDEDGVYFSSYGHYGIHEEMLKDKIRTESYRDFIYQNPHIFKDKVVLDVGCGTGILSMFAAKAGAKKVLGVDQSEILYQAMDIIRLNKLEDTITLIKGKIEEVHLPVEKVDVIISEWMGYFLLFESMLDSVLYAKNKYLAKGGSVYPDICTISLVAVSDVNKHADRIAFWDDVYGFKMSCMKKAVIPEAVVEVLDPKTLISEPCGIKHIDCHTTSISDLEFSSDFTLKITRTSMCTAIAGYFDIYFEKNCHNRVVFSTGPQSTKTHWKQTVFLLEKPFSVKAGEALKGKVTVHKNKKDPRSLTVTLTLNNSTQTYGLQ

C[n+]1cccc2c(N)cccc21 [1j, 5-amino-1-methylquinolin-1-ium iodide]
reduction of lipogenesis compared to control untreated adipocytes ([1]; 30 μM): 50%
reduction of lipogenesis compared to control untreated adipocytes ([1]; 60 μM): 70%
lipid accumulation in differentiating pre-adipocytes (in words) ([1]; 15, 30, 60 μM): concentration-dependent inhibition of lipid accumulation
Papp at 4 h, 400 μM ([2]; 400 μM in PBS, 4 h, room temperature, read-out: Flux): 3.01 ×10⁻⁶ cm/s
Permeability Classification (passive transport) ([2]; BCS classification, listed as 5-amino-1MQ): high passive and active transport; also recorded: High permeability
inhibition of PRMT3 (in words) [3]: did not inhibit
inhibition at 600 µM [4]: 10%
inhibition of DNMT1 (in words) ([5]; 10 nM to 200 μM (1,8-diMQ) or 600 μM (5-amino-1MQ)): did not inhibit
IC50 ([5]; NI: no inhibition, read-out: IC50, DNA (cytosine-5)-methyltransferase 1): > 200 µM
Classification (active transport / efflux) (Caco-2 cells): no detectable efflux; also recorded: High permeability
efflux ratio at 2 h, 10 μM ([6]; Caco-2): 1.33
Papp A→B at 2 h, 10 μM ([6]; Caco-2, pH 7.4): 34.2 ×10⁻⁶ cm/s
Papp B→A at 2 h, 10 μM ([6]; Caco-2, pH 7.4): 45.2 ×10⁻⁶ cm/s
IC50 (human NNMT (mt-hNNMT)): 1.2 µM and ~1 µM
cell viability ([7]; 3T3-L1 pre-adipocytes, 10 μM, 24 h): did not impact cell viability
cytotoxicity ([7]; 3T3-L1 pre-adipocytes, 600 μM (highest concentration tested), 24 h): ~40%
cytotoxicity relative to untreated cells ([7]; 3T3-L1 pre-adipocytes, 100-300 μM, 24 h): modest cytotoxicity
3T3-L1 cell viability compared to untreated ([7]; highest tested concentration (0.1-60 μM range)): only slightly reduced
